Each structure is given as a SMILES string.

What all share (format): functional
Assay [1] deals with HCT-116. The assay is described as follows: Antiproliferative activity against human HCT-116 cells assessed as cell growth inhibition at 10 uM measured after 72 hrs by MTT assay relative to control. As to conditions: read-out: GI.
The subject of assay [2] is SK-BR-3. Kind of assay: Antiproliferative activity against human SK-BR-3 cells assessed as cell growth inhibition at 10 uM measured after 72 hrs by MTT assay relative to control. As to conditions: read-out: GI. On the technique in general: Formazan colour is commonly taken as a measure of viable cells.
In assay [3] the test system is MCF7. The assay is described as follows: Antiproliferative activity against human MCF7 cells assessed as cell growth inhibition at 10 uM measured after 72 hrs by MTT assay relative to control. As to conditions: read-out: GI.
Assay [4] concerns HCT-116. The assay is described as follows: Antiproliferative activity against human HCT-116 cells assessed as cell growth inhibition measured after 72 hrs by MTT assay.
The test system of assay [5] is SK-BR-3. Kind of assay: Antiproliferative activity against human SK-BR-3 cells assessed as cell growth inhibition measured after 72 hrs by MTT assay.
The subject of assay [6] is MCF7. Kind of assay: Antiproliferative activity against human MCF7 cells assessed as cell growth inhibition measured after 72 hrs by MTT assay.

Regarding `CCCCCCCC(=O)Nc1nc2[nH]cc(CN3CCN(C)CC3)c2c(=O)[nH]1`, the values for the inhibition of growth at 10 µM in assay [1], in assay [2] and in assay [3] were 51%, 50.4% and 59.6%, respectively.
The like results for `Nc1nc2[nH]c(CN3CCN(C(c4ccccc4)c4ccccc4)CC3)c(CN3CCN(C(c4ccccc4)c4ccccc4)CC3)c2c(=O)[nH]1` were, in that order, 10.7%, 11.1% and 13.8%.
On to `Nc1nc2[nH]c(CN3CCN(Cc4ccccc4F)CC3)c(CN3CCN(Cc4ccccc4F)CC3)c2c(=O)[nH]1`, for which the inhibition of growth at 10 µM in assay [1] came to 12.8%; in assay [2] it was 59%; in assay [3] it was 8.91%.
With `N#Cc1ccccc1N1CCN(Cc2c[nH]c3nc(N)[nH]c(=O)c23)CC1`, the GI50 in assay [4] is 8.37 µM; in assay [5] it was 23.7 µM. The inhibition of growth at 10 µM in assay [1] is 72%; in assay [2] it was 73.8%; in assay [3], 51.1%.
Regarding `CCCCCCCC(=O)Nc1nc2[nH]cc(CN3CCN(c4ccc([N+](=O)[O-])cc4)CC3)c2c(=O)[nH]1`, the inhibition of growth at 10 µM was 68.5% in assay [1], 61.6% in assay [2] and 40.4% in assay [3]. Moreover, the GI50 in assay [5] is 8.04 µM.
As for `CCCCCCCC(=O)Nc1nc2[nH]cc(CN3CCN(C(C)=O)CC3)c2c(=O)[nH]1`, the inhibition of growth at 10 µM amounted to 43.8% in assay [1], 40.2% in assay [2] and 35.8% in assay [3].
`CCCCCCCC(=O)Nc1nc2[nH]cc(CN3CCCCC3)c2c(=O)[nH]1`: the GI50 is 14.9 µM in assay [4], 15 µM in assay [5] and 13.4 µM in assay [6]. Further, the results for the inhibition of growth at 10 µM in assay [1], in assay [2] and in assay [3] were 51.1%, 77.1% and 70.2%, respectively.
Regarding `Nc1nc(O)c2c(CN3CCCCC3)c[nH]c2n1`, the inhibition of growth at 10 µM stood at 24.1% in assay [1], 17.5% in assay [2] and 23.8% in assay [3].
In the case of `Nc1nc2[nH]cc(CN3CCN(CCN4CCOCC4)CC3)c2c(=O)[nH]1`, the inhibition of growth at 10 µM in assay [1] amounted to 15.4%; in assay [2] it was 27.1%; in assay [3], 19.5%.
For `Nc1nc2[nH]cc(Cn3ccnc3)c2c(=O)[nH]1`, the inhibition of growth at 10 µM turned out to be 50.6% in assay [1], 38.8% in assay [2] and 38.8% in assay [3].
As to `CCCCCCCC(=O)Nc1nc2[nH]cc(CN3CCN(C(c4ccccc4)c4ccccc4)CC3)c2c(=O)[nH]1`, the GI50 turned out to be 1.01 µM in assay [4] and 0.41 µM in assay [5]. Besides, the inhibition of growth at 10 µM in assay [1] was 75.5%; in assay [2], 67.4%; in assay [3], 58.4%.
As for `CCCCCCCC(=O)Nc1nc2[nH]cc(CN3CCN(c4cccc(Cl)c4)CC3)c2c(=O)[nH]1`, the results for the GI50 in assay [4] and in assay [5] were 7.17 µM and 0.95 µM, respectively. In addition, the inhibition of growth at 10 µM stood at 72.7% in assay [1], 69.7% in assay [2] and 43.4% in assay [3].
As for `CCCCCCCC(=O)Nc1nc2[nH]cc(CN3CCN(c4ccccc4C#N)CC3)c2c(=O)[nH]1`, the GI50 in assay [4] amounted to 1.46 µM; in assay [5], 0.97 µM. Moreover, the inhibition of growth at 10 µM in assay [1] came to 79.5%; in assay [2] it was 84.6%; in assay [3] it was 59.2%.
On to `Nc1nc2[nH]c(CN3CCN(Cc4ccccc4)CC3)c(CN3CCN(Cc4ccccc4)CC3)c2c(=O)[nH]1`, for which the inhibition of growth at 10 µM in assay [1] amounted to 21.4%; in assay [2], 15.7%; in assay [3], 21.2%.
The like results for `Nc1nc2[nH]c(CN3CCN(Cc4ccc(F)cc4)CC3)c(CN3CCN(Cc4ccc(F)cc4)CC3)c2c(=O)[nH]1` were, in that order, 23%, 23.2% and 18.4%.
As for `Nc1nc2[nH]c(CN3CCN(Cc4cccc(F)c4)CC3)c(CN3CCN(Cc4cccc(F)c4)CC3)c2c(=O)[nH]1`, the inhibition of growth at 10 µM was 13.6% in assay [1], 10.5% in assay [2] and 16.1% in assay [3].
In the case of `Nc1nc2[nH]c(CN3CCN(c4ccc([N+](=O)[O-])cc4)CC3)c(CN3CCN(c4ccc([N+](=O)[O-])cc4)CC3)c2c(=O)[nH]1`, the inhibition of growth at 10 µM in assay [1] was 1.94%; in assay [2], 6.79%; in assay [3], 1.26%.
For `CCCCCCCC(=O)Nc1nc2[nH]c(CN3CCN(C(c4ccccc4)c4ccccc4)CC3)c(CN3CCN(C(c4ccccc4)c4ccccc4)CC3)c2c(=O)[nH]1`, the figures for the GI50 in assay [4] and in assay [5] were 18.4 µM and 6.43 µM, respectively. Besides, the inhibition of growth at 10 µM was 41.5% in assay [1], 67.3% in assay [2] and 15.2% in assay [3].
`Nc1nc2[nH]cc(CN3CCN(c4ccccc4)CC3)c2c(=O)[nH]1`: the inhibition of growth at 10 µM in assay [1] was determined as 49%; in assay [2], 30.7%; in assay [3], 49.7%.
For `Nc1nc2[nH]cc(CN3CCN(Cc4cccc(F)c4)CC3)c2c(=O)[nH]1`, the inhibition of growth at 10 µM in assay [1] amounted to 31.1%; in assay [2], 16.8%; in assay [3], 20.6%.
Regarding `COc1ccc(N2CCN(Cc3c[nH]c4nc(N)[nH]c(=O)c34)CC2)cc1`, the inhibition of growth at 10 µM is 69.2% in assay [1], 57.5% in assay [2] and 51.7% in assay [3]. Further, in assay [5], the 50% growth inhibitory concentration (GI50) turned out to be 11.2 µM.
In the case of `CCCCCCCC(=O)Nc1nc2[nH]cc(CN3CCN(c4ccccc4)CC3)c2c(=O)[nH]1`, the GI50 is 3.99 µM in assay [4] and 0.63 µM in assay [5]. Besides, the inhibition of growth at 10 µM amounted to 73.9% in assay [1], 67.6% in assay [2] and 50.3% in assay [3].
As for `CCCCCCCC(=O)Nc1nc2[nH]cc(CN3CCN(CCO)CC3)c2c(=O)[nH]1`, the inhibition of growth at 10 µM in assay [1] was found to be 67.3%; in assay [2] it was 62.2%; in assay [3], 42%.
For the molecule `Nc1nc2[nH]cc(CN3CCN(CCO)CC3)c2c(=O)[nH]1`, the inhibition of growth at 10 µM in assay [1] came to 17.8%; in assay [2], 32.8%; in assay [3], 18.8%.
Take `CC(=O)N1CCN(Cc2c[nH]c3nc(N)[nH]c(=O)c23)CC1`: the figures for the inhibition of growth at 10 µM in assay [1], in assay [2] and in assay [3] were 13.8%, 24.2% and 16.2%, respectively.
With `Nc1nc2[nH]cc(CN3CCN(c4cccc(Cl)c4)CC3)c2c(=O)[nH]1`, the GI50 in assay [4] is 7.66 µM; in assay [5], 8.28 µM. The inhibition of growth at 10 µM in assay [1] turned out to be 79.3%; in assay [2], 67.5%; in assay [3], 54.2%.
As for `Nc1nc2[nH]cc(CN3CCN(c4ccc([N+](=O)[O-])cc4)CC3)c2c(=O)[nH]1`, the inhibition of growth at 10 µM in assay [1] turned out to be 28.5%; in assay [2] it was 27.5%; in assay [3], 26.8%.
The like results for `CCCCCCCC(=O)Nc1nc2[nH]cc(CN3CCC(NC(=O)OC(C)(C)C)CC3)c2c(=O)[nH]1` were, in that order, 50.3%, 59.3% and 36.5%.
For the molecule `CN1CCN(Cc2c[nH]c3nc(N)[nH]c(=O)c23)CC1`, the inhibition of growth at 10 µM came to 16.5% in assay [1], 29% in assay [2] and 20.2% in assay [3].
On to `CCCCCCCC(=O)Nc1nc2[nH]cc(Cn3ccnc3)c2c(=O)[nH]1`, for which the figures for the inhibition of growth at 10 µM in assay [1], in assay [2] and in assay [3] were 80.5%, 86.1% and 68.2%, respectively.
Regarding `CCCCCCCC(=O)Nc1nc2[nH]cc(CN3CCN(CCN4CCOCC4)CC3)c2c(=O)[nH]1`, the inhibition of growth at 10 µM in assay [1] was determined as 93%; in assay [2], 90.4%; in assay [3], 88.6%.
Take `CCCCCCCC(=O)Nc1nc2[nH]c(CN3CCN(c4cc(Cl)cc(Cl)c4)CC3)c(CN3CCN(c4cc(Cl)cc(Cl)c4)CC3)c2c(=O)[nH]1`: the inhibition of growth at 10 µM in assay [1] amounted to 6.88%; in assay [2], 42.5%; in assay [3] it was 10.7%.
As to `CCCCCCCC(=O)Nc1nc2[nH]c(CN3CCN(c4ccc([N+](=O)[O-])cc4)CC3)c(CN3CCN(c4ccc([N+](=O)[O-])cc4)CC3)c2c(=O)[nH]1`, the inhibition of growth at 10 µM in assay [1] was determined as 27%; in assay [2], 64.6%; in assay [3] it was 12.6%.
Turning to `CCCCCCCC(=O)Nc1nc2[nH]cc(CN3CCN(c4ccc(OC)cc4)CC3)c2c(=O)[nH]1`, the GI50 in assay [4] was found to be 8.94 µM; in assay [5] it was 1.23 µM. In addition, the inhibition of growth at 10 µM in assay [1] came to 71.4%; in assay [2] it was 71.4%; in assay [3], 49.2%.
Turning to `Nc1nc2[nH]cc(CN3CCN(C(c4ccccc4)c4ccccc4)CC3)c2c(=O)[nH]1`, the GI50 in assay [4] turned out to be 20.3 µM; in assay [6], 33.9 µM. Besides, the figures for the inhibition of growth at 10 µM in assay [1], in assay [2] and in assay [3] were 80.5%, 4.22% and 79.5%, respectively.
As for `CCCCCCCC(=O)Nc1nc2[nH]cc(CN3CCN(C(=O)c4ccco4)CC3)c2c(=O)[nH]1`, the results for the inhibition of growth at 10 µM in assay [1], in assay [2] and in assay [3] were 60.2%, 71.2% and 68.5%, respectively.
Take `COc1c(C)cnc(Cn2cnc3c(Cl)nc(N)nc32)c1C` [BIIB021]: the inhibition of growth at 10 µM in assay [1] is 86.2%; in assay [2], 71.9%; in assay [3] it was 84.8%. The GI50 was 0.347 µM in assay [5] and 0.392 µM in assay [6].

One may read the GI50 as the concentration at which growth is held to half of that of the control.
